Assays:
[1] = system: Dizocilpine-induced learning impairments in mice; test: Step-through passive avoidance, Dizocilpine-induced learning impairments; type: in vivo
Source text: The apparatus is a two-compartments (15 × 20 × 15 cm high) box with one illuminated with white polyvinylchloride walls and the other darkened with black polyvinylchloride walls and a grid floor. A guillotine door separates each compartment. A 60 W lamp positioned 40 cm above the apparatus lights up the white compartment during the experiment. Scrambled foot shocks (0.3 mA for 3 s) could be delivered to the grid floor using a shock generator scrambler (Lafayette Instruments, Lafayette, USA). The guillotine door was initially closed during the training session. Each mouse was placed into the white compartment. After 5 s, the door was raised. When the mouse entered the darkened compartment and placed all its paws on the grid floor, the door is closed and the foot shocks delivered for 3 s. The step-through latency (STL-Tg), that is, the latency spent to enter the darkened compartment, and the number of vocalizations were recorded. The retention test was carried out 24 h after training. Each mouse was placed again into the white compartment. After 5 s, the door was raised. The step-through latency (STL-R) was recorded up to 300 s (Meunier et al., 2006, 2013; Villard et al., 2009, 2011). An exclusion criteria was STL-Tg and STL-R < 10 s. Animals showing these readouts are excluded from the calculations. Attrition is routinely < 5% in this test.

[2] = system: Dizocilpine-induced learning impairments in mice; test: Spontaneous alternation in the Y-maze, Dizocilpine-induced learning impairments; type: in vivo; details: at the highest dose tested (range 0.1-3 mg/kg IP)
Description: The Y-maze is made of grey polyvinylchloride. Each arm is 40 cm long, 13 cm high, 3 cm wide at the bottom, 10 cm wide at the top, and converging at an equal angle. Each mouse was placed at the end of one arm and allowed to move freely through the maze during an 8 min session. The series of arm entries, including possible returns into the same arm, were checked visually. An alternation is defined as entries into all three arms on consecutive occasions. The number of maximum alternations is therefore the total number of arm entries minus two and the percentage of alternation was calculated as (actual alternations / maximum alternations) × 100 (Maurice et al., 1996; Meunier et al., 2006, 2013). Exclusion criteria are locomotion < 10 or percentage of alternation < 25% or > 90%. Animals showing these readouts are excluded from the calculations. Attrition is routinely < 5% in this test.
Due to the chaperone nature of SIG-1R, a SIG-1R positive modulator behaves as an agonist in vivo, particularly on learning and memory abilities in mice (Maurice et al., 2019; Vavers et al., 2019). Convolamine was tested on Dizocilpine-induced learning impairments, a well-characterized SIG-1R-mediated response in mice (Maurice et al., 1994, 2001). The NMDA receptor noncompetitive antagonist Dizocilpine (0.15 mg/kg IP) prevented spontaneous alternation behavior (Fig. 4A) and increased mobility (Fig. 4B) in the Y-maze. […] Co-treatment with the SIG-1R antagonist NE-100 at 1 mg/kg IP, blocked the attenuating effect of Convolamine (Fig. 4C), thus confirming the SIG-1R-mediated effect.

[3] = system: wfs1ab^KO zebrafish larvae; test: Visual motor response in zebrafish larvae (hyperlocomotor response); type: in vivo; details: at 3 µM in fish water
Description: The visual motor response assay quantifies the locomotor activity of the zebrafish larvae to light intensity changes. The protocol was previously described (Crouzier et al., 2021a, 2021b, 2022). In brief, 5 dpf larvae were transfered in a 96-well plate (#7701-1651, Whatman) with 300 µl of fish water and placed in a Zebrabox® (ViewPoint, Lissieu, France). The locomotor behavior was monitored using an automated videotracking device equipped with an infra-red (IR) camera under IR light illumination (Zebralab®, Viewpoint). The light protocol was as follow: 30 min of acclimatization in the dark (0% light intensity), then 2 cycles of 10-min duration light ON and 10-min duration light OFF periods. The brightness changes were immediate (<< 1 s). The activity was measured in mm/s. For each larva, the mobility were calculated as mean (OFF-ON) values to account for inter- and intra-group variability in locomotor response.
A phenotypic test described by Crouzier et al. (2022) was performed. […] Compounds were added in the fish water of larvae at 4 dpf for 24 h, and screening parameters included: (1) the lack of toxicity (including grossly observable morphological alterations) after 24 h exposure; (2) the locomotor increase in wfs1ab^KO larvae, expressed as % of V-treated wfs1ab^KO response; (3) the eventual alteration of locomotion in wfs1ab^WT larvae, expressed as % of V-treated wfs1ab^WT response; and (4) the Protection index (PI) calculated as detailed in the Methods section.

SIG-1R/BiP = biological target: T1, SIG-1R/BiP (Homo sapiens, UniProt Q99720); test: SIG-1R/BiP dissociation assay in GFP-SIG-1R-overexpressing CHO cells; type: cell-based; details: compound alone, at concentrations up to 30 µM
T1 construct: host or cells: CHO cells overexpressing GFP-SIG-1R
Description: CHO cells which overexpress GFP tagged-SIG-1R (gift from Tsung-Ping Su, NIDA/NIH, Baltimore, MD, USA) were maintained in DMEM/Glutamax culture medium supplemented with 10% heat inactivated FBS. GFP-SIG-1Roe CHO cells were plated in 6-well plates and treated with test compounds dissolved in culture medium for 30 min at 37°C. The reaction was terminated by removing the culture medium containing the test drug and replacing it with 1 ml of PBS. GFP-SIG-1R-oe CHO cells were harvested and suspended in PBS (pH 7.4) followed by cross-linking with 50 µg/ml of dithiobis succinimidyl propionate (ThermoFisher, France). The reaction was stopped by adding Tris/HCl 50 mM (pH 8.8). After a 15 min incubation on ice, cells were lysed with 50 mM Tris (pH 7.4), 150 mM NaCl, 1% Triton X/100, 0.3% sodium deoxycholate, 0.1% SDS buffer containing a protease inhibitor cocktail (Sigma-Aldrich, France). After centrifugation at 16,000 g for 1 min, the supernatant was incubated with Chromotek GFP-trap agarose (Proteintech, United Kingdom) overnight at 4°C.

T1 sequence (Q99720 whole entry): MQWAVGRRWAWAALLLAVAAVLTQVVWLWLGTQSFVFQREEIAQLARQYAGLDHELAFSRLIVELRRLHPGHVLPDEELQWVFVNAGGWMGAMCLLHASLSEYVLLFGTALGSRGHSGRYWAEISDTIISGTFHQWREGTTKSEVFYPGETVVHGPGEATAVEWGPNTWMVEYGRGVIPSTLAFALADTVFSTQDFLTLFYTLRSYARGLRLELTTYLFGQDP

Compound	Dizocilpine-induced decrease in step-through latency (in words) ([1]; at 0.3 mg/kg IP)	Dizocilpine-induced increase in escape latency (in words) ([1]; at the highest doses tested (range 0.1-3 mg/kg IP))	Dizocilpine-induced alternation deficit (in words) [2]	hyperlocomotor response of wfs1ab^KO zebrafish (in words) [3]	dissociation of SIG-1R from BiP (in words) (SIG-1R/BiP)
COc1ccc(C(=O)OC2CC3CCC(C2)N3)cc1OC (stereo not drawn) [Convolvine, reference compound]	attenuated, but in a non-significant manner	attenuated, but in a non-significant manner	significantly attenuated	failed to attenuate	–
CCCN(CCC)CCc1ccc(OC)c(OCCc2ccccc2)c1 [NE-100, reference compound]	–	–	–	failed to affect	ineffective
